Read-outs that look alike come from different tables or passages of the source.
Legend:
[1] = logP determination by HPLC (EEC-Directive 79/831 Annex V. A8, gradient method); format: physicochemical; details: for chromatographic logP: value printed in preparation example text, read-out: HPLC: log P; for logP: gradient method, acetonitrile/0.1% aqueous phosphoric acid
[2] = system: Erysiphe graminis f sp. tritici; assay: Erysiphe test (wheat)/protective; format: in vivo; details: protective, 500 g/ha, assessment 7 days after inoculation
From the text: [table] One part by weight of active substance is mixed with the specified quantities of solvent and emulsifier and the concentrate diluted with water to the desired concentration to prepare a suitable active substance preparation. To test the protective efficiency, young plants are sprayed with the active substance preparation in the specified amount. After drying the spray coating, the plants are dusted with spores of Erysiphe graminis f sp. tritici. The plants are then placed in a glasshouse at a temperature of about 20° C. and a relative humidity of about 80% to promote the development of mildew pustules. The assessment is made 7 days after the inoculation. In this situation 0% means an efficiency corresponding to that of the control whereas an efficiency of 100% means that no attack is observed.

| logP [1] | Structure (SMILES) | other results |
| --- | --- | --- |
| 3.13 | CC(C)C(C)Nc1c(-c2ncc(C(F)(F)F)cc2F)c(Cl)nc2ncnn12 (stereo not shown) [Example 7] | – |
| 1.98 | C[C@@H](Nc1c(-c2ncncc2Cl)c(Cl)nc2ncnn12)C(F)(F)F [Example 8] | – |
| 2.53 | CC(C)C(C)Nc1c(-c2ncccc2C(F)(F)F)c(Cl)nc2ncnn12 (stereo not shown) [Example 11] | – |
| 2.16 | CC(C)C(C)Nc1c(-c2ncncc2Cl)c(Cl)nc2ncnn12 (stereo not shown) [Example 13] | – |

The next lines start with the compound.

| Structure (SMILES) | logP [1] | other results |
| --- | --- | --- |
| C[C@H](Nc1c(-c2ncccc2C(F)(F)F)c(Cl)nc2ncnn12)C(F)(F)F [Example 1, N-{5-chloro-6-[3-(trifluoromethyl)-2-pyridinyl][1,2,4]triazolo[1,5-a]pyrimidin-7-yl}-N-[(1 S)-2,2,2-trifluor-1-methylethyl]amine] | – | chromatographic logP [1]: 2.22 |
| C[C@H](Nc1c(-c2ncncc2Cl)c(Cl)nc2ncnn12)C(F)(F)F [Example 2, N-[5-chloro-6-(5-chloro-4-pyrimidinyl)[1,2,4]triazolo[1,5-a]pyrimidin-7-yl]-N-[(1S)-2,2,2-trifluoro-1-methylethyl]amine] | – | efficiency [2]: higher than 90%; chromatographic logP ([1]; HPLC (gradient method, EEC-Directive 79/831 Annex V. A8)): 1.98 |
| CC(C)CNc1c(-c2ncc(C(F)(F)F)cc2F)c(Cl)nc2ncnn12 [Example 3] | 2.85 | – |
| C=C(C)CN(CC)c1c(-c2ncc(C(F)(F)F)cc2F)c(Cl)nc2ncnn12 [Example 4] | 3.51 | – |
| CC(Nc1c(-c2ncc(C(F)(F)F)cc2F)c(Cl)nc2ncnn12)C(F)(F)F (stereo not shown) [Example 6] | 2.91 | – |

Reference: patent US20070275985A1, “Triazolopyrimidines” (Bayer Cropscience Aktiengesellschaft, priority 2003, published 2007)
